Source: patent US11879001B2, “Conjugate comprising an IL-2 moiety” (ASCENDIS PHARMA ONCOLOGY DIVISION A/S, priority 2020, dated 2024)
Where “and” joins values, the source holds several entries; their conditions need not be identical. Equal entries are not always repeated.

How the values were obtained:
human IL-2Rβ = biological target: T1, human IL-2Rβ (Homo sapiens, UniProt P14784); experiment: Biacore binding to human IL-2Rβ-Fc
T1 construct: purchased
T1 sequence (P14784 27-551): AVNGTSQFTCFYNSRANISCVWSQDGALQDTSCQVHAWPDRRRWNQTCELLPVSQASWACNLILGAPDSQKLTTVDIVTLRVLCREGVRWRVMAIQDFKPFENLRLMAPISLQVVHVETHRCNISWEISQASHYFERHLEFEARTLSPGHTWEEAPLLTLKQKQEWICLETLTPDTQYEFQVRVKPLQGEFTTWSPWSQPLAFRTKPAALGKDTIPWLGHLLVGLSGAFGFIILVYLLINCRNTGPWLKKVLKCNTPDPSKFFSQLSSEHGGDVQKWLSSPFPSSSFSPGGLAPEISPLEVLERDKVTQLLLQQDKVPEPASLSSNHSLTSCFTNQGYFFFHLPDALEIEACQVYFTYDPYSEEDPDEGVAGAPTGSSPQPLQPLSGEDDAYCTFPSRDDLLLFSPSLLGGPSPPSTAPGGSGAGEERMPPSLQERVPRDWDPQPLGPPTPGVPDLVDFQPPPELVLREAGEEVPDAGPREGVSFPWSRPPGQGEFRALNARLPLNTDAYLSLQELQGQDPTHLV
Description: (§1) Binding affinity/kinetics needed to determine the KD of biased IL-2 to IL-2Rα, the KD of biased IL-2 to IL-2Rβ, the KD of aldesleukin to IL-2Rα and the KD of aldesleukin to IL-2Rβ may be assessed using surface plasmon resonance (SPR), measured on a Biacore instrument (GE Healthcare) as follows: A human Fc capture surface on a CM5 (or alternatively C1 or CM4) chip is prepared by covalent coating with anti-human Fc antibody or alternatively a protein A chip is used. Next, IL-2Rβ-Fc or IL2-Rα-Fc is immobilized on the chip. […] Analytes are each exposed to the receptor-modified chip for a suitable amount of time, such as for 1 to 30 minutes, which may for example be 2 minutes or may be 3 minutes and are then washed away for a suitable amount of time, such as 2 to 60 minutes, which may for example be 10 minutes. The resulting binding curves from the dilution series are fit to a 1:1 kinetic model to correlate observed response units (R) to the association and dissociation rate constants, ka and kd: […]

[1] = test system: peripheral blood lymphocytes and eosinophils; experiment: Peripheral blood lymphocyte and eosinophil counts (hematology analyzers) in treated Cynos; type: in vivo, Cynomolgus macaques; conditions: ~0.044 mg/kg IV x5 daily
Description: (§2) Two studies were conducted to measure the pharmacodynamic effects of either Aldesleukin (Prometheus, National Drug Code 65483011607) (SEQ ID NO:15) 11 or 5 in Cynos. In the first study, four Cynos ranging in weight from 7.77-10.6 kg (average 9.2 kg) were treated intravenously with five sequential daily 0.4 mg doses of 11 on days 1-5 (average mg/kg: 0.044). In the second study, four Cynos ranging in weight from 2.46-3.69 kg (average 3.13 kg) were treated with a single intravenous dose of either 0.1 mg/kg (n=2) or 0.3 mg/kg (n=2) of 5. All animals were chair trained prior to the study. For both studies, peripheral blood samples were taken before and after treatment at various timepoints as indicated and analyzed for lymphocyte counts, eosinophil counts and cytokines. For animals treated with 5, additional flow cytometry experiments were performed. For measurements of (absolute) lymphocyte counts and eosinophil counts, whole blood was processed on hematology analyzers. For IL-5 and IL-6 cytokine measurements, serum was processed from whole blood and analyzed by ELISA or MSD. For flow cytometry measurements (Immunophenotyping, IPT, FACS), Cynomolgus monkey whole blood was collected in EDTA anticoagulant and kept at room temperature until processed for flow cytometry. Blood was lysed and samples were stained for extracellular surface markers and intracellular phenotypic and lineage markers by standard methods. Cell populations were analyzed using the following phenotypes and gated for percentage of cells which were positive for proliferation marker Ki67.

IL-5 = experiment: Serum IL-5 cytokine levels (ELISA or MSD) in treated Cynos; type: in vivo, Cynomolgus macaques; conditions: ~0.044 mg/kg IV x5 daily
Description: as §2, with “For flow cytometry measurements (Immunophenotyping, IPT, FACS), Cynomolgus monkey whole blood was collected in EDTA anticoagulant and kept at room temperature until processed for flow cytometry. Blood was lysed and samples were stained for extracellular surface markers and intracellular phenotypic and lineage markers by standard methods.” left out

IL-6 = experiment: Serum IL-6 cytokine levels (ELISA or MSD) in treated Cynos; type: in vivo, Cynomolgus macaques; conditions: ~0.044 mg/kg IV x5 daily
Description: as §2

human IL-2Rα = biological target: T2, human IL-2Rα (Homo sapiens, UniProt P01589); experiment: Biacore binding to human IL-2Rα-Fc; conditions: independent measurement
T2 construct: purchased
T2 sequence (P01589 22-272): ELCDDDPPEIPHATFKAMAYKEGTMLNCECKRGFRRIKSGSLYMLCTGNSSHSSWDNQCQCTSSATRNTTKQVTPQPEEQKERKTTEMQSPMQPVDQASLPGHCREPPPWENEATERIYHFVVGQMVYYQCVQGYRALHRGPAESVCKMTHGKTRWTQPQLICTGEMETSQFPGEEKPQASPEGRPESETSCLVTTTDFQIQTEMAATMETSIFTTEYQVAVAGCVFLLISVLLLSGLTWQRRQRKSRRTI
Description: as §1

[2] = test system: pSTAT5 in Tregs, CD8+ T cells, NK cells; experiment: pSTAT5 in lymphocyte subsets of whole cynomolgus monkey blood (flow cytometry); type: cell-based
Description: (§3) To evaluate the cell type specific immunostimulatory effects of 3 in primary human or monkey cells, whole human or cynomolgus monkey blood from two donors each was incubated with various concentrations of 3 or 13 for 30 minutes and analyzed by flow cytometry for intracellular levels of phosphorylated STAT5 (pSTAT5) in unique cell subsets such as Tregs which predominately express IL-2Rα/β/γ as well as CD8+ T cells (CD8) and NK cells which predominately express IL-2Rβ/γ. Additionally, CD8^+ T cells were further analyzed for CD8^+ CD45RA^+ Naïve (CD8 N) as well as CD8^+ CD45RA^− Memory (CD8 M) subsets. Similar experiments were performed with mouse blood using a different panel of mouse specific antibodies. All subsets were analyzed for median fluorescence intensities of pSTAT5 and EC50 values were calculated for each compound across all cell types.

[3] = test system: pSTAT5 in Tregs, CD8+ T cells, NK cells; experiment: pSTAT5 in lymphocyte subsets of mouse blood (flow cytometry); type: cell-based
Description: [The source words this procedure for another organism and says it was used here with some conditions changed.] as §3, with “Similar experiments were performed with mouse blood using a different panel of mouse specific antibodies.” left out

[4] = test system: pSTAT5 in Tregs, CD8+ T cells, NK cells; experiment: pSTAT5 in lymphocyte subsets of whole human blood (flow cytometry); type: cell-based
Description: as §3

11: Aldesleukin, recombinant human Interleukin-2 (SEQ ID NO:15) [Compound 11]
KD for IL-2Rβ compared with 12 (human IL-2Rβ; independent measurement): highly comparable KD values | average fold increase in eosinophil counts ([1]; Day 8): 6.92 fold | average fold increase in lymphocyte counts ([1]; Day 8): 2.77 fold | average fold increase in eosinophil counts ([1]; Day 10): 5.94 fold | average fold increase in lymphocyte counts ([1]; Day 10): 2.79 fold | Lymphocyte Counts ([1]; Study Day 1): 4995 µL⁻¹ and 4670.6 µL⁻¹ and 4845 µL⁻¹ and 4617.6 µL⁻¹ | Lymphocyte Counts ([1]; Study Day 4): 3739.1 µL⁻¹ and 2646 µL⁻¹ and 2703.2 µL⁻¹ and 3034 µL⁻¹ | Lymphocyte Counts ([1]; Study Day 5): 4144.5 µL⁻¹ and 3990 µL⁻¹ and 3784 µL⁻¹ | Lymphocyte Counts ([1]; Study Day 8): 11186 µL⁻¹ and 11088 µL⁻¹ and 8086 µL⁻¹ and 14958 µL⁻¹ | Lymphocyte Counts ([1]; Study Day 9): 10260 µL⁻¹ and 10045 µL⁻¹ and 9548 µL⁻¹ and 13878 µL⁻¹ | Lymphocyte Counts ([1]; Study Day 10): 8316 µL⁻¹ and 10664 µL⁻¹ and 12079 µL⁻¹ and 14885 µL⁻¹ | Lymphocyte Counts ([1]; Study Day 11): 7304 µL⁻¹ and 9640 µL⁻¹ and 8736 µL⁻¹ and 7720 µL⁻¹ | Lymphocyte Counts ([1]; Study Day 12): 5652 µL⁻¹ and 9520 µL⁻¹ and 8325 µL⁻¹ and 7518 µL⁻¹ | Lymphocyte Counts ([1]; Study Day 15): 6720 µL⁻¹ and 9700 µL⁻¹ and 5468.3 µL⁻¹ and 6198.4 µL⁻¹ | Lymphocyte Counts ([1]; Study Day 19): 2385.6 µL⁻¹ and 3965.5 µL⁻¹ and 2067 µL⁻¹ and 3139.5 µL⁻¹ | Lymphocyte Counts ([1]; Study Day -4 (Baseline)): 4032 µL⁻¹ and 4514.4 µL⁻¹ and 4189.5 µL⁻¹ and 3564 µL⁻¹ | Lymphocyte Counts ([1]; Study Day -5 (Baseline)): 4074 µL⁻¹ and 3530.6 µL⁻¹ and 4719 µL⁻¹ and 4376.3 µL⁻¹ | average serum peak IL-5 levels (IL-5): 117.78 pg/mL | IL-5 (IL-5; Study Day -3): 0.28 pg/mL and 0.1895 pg/mL and 0.2445 pg/mL and 0.233 pg/mL | average serum peak IL-6 levels (IL-6): 58.66 pg/mL | IL-6 (IL-6; Study Day 2.25): 6.79 pg/mL and 9.02 pg/mL and 7.69 pg/mL and 9.95 pg/mL | IL-6 (IL-6; Study Day 5): 0.75 pg/mL and 0.81 pg/mL and 0.46 pg/mL and 0.48 pg/mL | IL-6 (IL-6; Study Day 5.25): 3.67 pg/mL and 3.59 pg/mL and 2.42 pg/mL and 4.21 pg/mL | KD for IL-2Rα compared with 12 (human IL-2Rα): highly comparable KD values

12: unbiased control recombinant human IL-2 (SEQ ID NO:45) [Compound 12]
Kd (human IL-2Rβ; Biacore): ~500 nM

13: his-tagged mammalian expressed control human IL-2 (SEQ ID NO:46) [Compound 13]
Fold Potency Loss vs Human, Treg ([2]; cynomolgus monkey Treg vs human Treg, pSTAT5 EC50): 1 | pSTAT5 EC50, Treg ([2]; whole cynomolgus monkey blood, 30 minutes, Treg): 0.09 ng/mL | Fold Potency Loss vs Human, CD8 ([3]; mouse CD8 vs human CD8, pSTAT5 EC50): 935.79 | Fold Potency Loss vs Human, NK ([3]; mouse NK vs human NK, pSTAT5 EC50): 1613.10 | Fold Potency Loss vs Human, Treg ([3]; mouse Treg vs human Treg, pSTAT5 EC50): 4.11 | EC50 for pSTAT5 in NK cells ([3]; mouse blood): 9,694.74 ng/ml | EC50 for pSTAT5 in Tregs ([3]; mouse blood): 0.37 ng/ml | pSTAT5 EC50, CD8 ([3]; mouse blood, CD8+ T cells): 24,040.56 ng/mL | pSTAT5 EC50, CD8 ([4]; additional human blood experiments (Table 29), CD8): 4.94 ng/mL | pSTAT5 EC50, NK ([4]; additional human blood experiments (Table 29), NK): 17.59 ng/mL | pSTAT5 EC50, Treg ([4]; additional human blood experiments (Table 29), Treg): 0.047 ng/mL | EC50 for pSTAT5 in NK cells ([4]; human blood, 30 minutes): 6.01 ng/ml | EC50 for pSTAT5 in Tregs ([4]; human blood, 30 minutes): 0.09 ng/ml | pSTAT5 EC50, CD8 ([4]; whole human blood, 30 minutes, CD8+ T cells (Table 27)): 25.69 ng/mL
